Source: the NIST ThermoML archive (doi:10.1021/je050498q)
± gives the expanded uncertainty stated by the source.

How the values were obtained:
[1] = wn = mass fraction of the nth substance listed; settings: 101 kPa, Liquid
[2] = refractive index (Na D-line) (dimensionless); wn = mass fraction of the nth substance listed; settings: 101 kPa, Liquid

O=C([O-])[C@H](O)[C@@H](O)C(=O)[O-].[Na+].[Na+] [disodium L-tartrate] + O
Settings | refractive index, 298.15 K | refractive index, 308.15 K | refractive index, 318.15 K | viscosity, 298.15 K [mPa·s] | viscosity, 308.15 K [mPa·s] | viscosity, 318.15 K [mPa·s]
[1], w1 = 0.01986 | – | – | – | 0.932 ± 0.024 | 0.773 ± 0.02 | 0.644 ± 0.018
[1], w1 = 0.03991 | – | – | – | 0.995 ± 0.025 | 0.824 ± 0.022 | 0.683 ± 0.018
[1], w1 = 0.06024 | – | – | – | 1.06 ± 0.027 | 0.885 ± 0.023 | 0.726 ± 0.019
[1], w1 = 0.08009 | – | – | – | 1.137 ± 0.028 | 0.952 ± 0.024 | 0.782 ± 0.021
[1], w1 = 0.09999 | – | – | – | 1.23 ± 0.03 | 1.02 ± 0.026 | 0.832 ± 0.022
[1], w1 = 0.12 | – | – | – | 1.321 ± 0.032 | 1.098 ± 0.028 | 0.894 ± 0.023
[1], w1 = 0.14 | – | – | – | 1.431 ± 0.035 | 1.184 ± 0.03 | 0.959 ± 0.025
[1], w1 = 0.16 | – | – | – | 1.56 ± 0.038 | 1.278 ± 0.032 | 1.024 ± 0.026
[1], w1 = 0.1795 | – | – | – | 1.706 ± 0.041 | 1.38 ± 0.034 | 1.101 ± 0.028
[1], w1 = 0.2007 | – | – | – | 1.891 ± 0.045 | 1.519 ± 0.037 | 1.215 ± 0.03
[1], w1 = 0.2196 | – | – | – | 2.086 ± 0.049 | 1.669 ± 0.04 | 1.334 ± 0.033
[1], w1 = 0.2402 | – | – | – | 2.301 ± 0.054 | 1.857 ± 0.045 | 1.475 ± 0.036
[1], w1 = 0.26 | – | – | – | 2.563 ± 0.06 | 2.055 ± 0.049 | 1.647 ± 0.04
[1], w1 = 0.2806 | – | – | – | 2.897 ± 0.067 | 2.305 ± 0.055 | 1.846 ± 0.044
[2], w1 = 0.0099 | 1.3343 ± 0.0007 | 1.3331 ± 0.0007 | 1.3318 ± 0.0007 | – | – | –
[2], w1 = 0.0192 | 1.336 ± 0.0007 | 1.3346 ± 0.0007 | 1.3335 ± 0.0007 | – | – | –
[2], w1 = 0.0282 | 1.3373 ± 0.0007 | 1.3363 ± 0.0007 | 1.3351 ± 0.0007 | – | – | –
[2], w1 = 0.0371 | 1.3389 ± 0.0007 | 1.3378 ± 0.0007 | 1.3367 ± 0.0007 | – | – | –
[2], w1 = 0.046 | 1.3405 ± 0.0007 | 1.3393 ± 0.0007 | 1.3381 ± 0.0007 | – | – | –
[2], w1 = 0.0547 | 1.3418 ± 0.0007 | 1.3408 ± 0.0007 | 1.3396 ± 0.0007 | – | – | –
[2], w1 = 0.0625 | 1.3432 ± 0.0007 | 1.3421 ± 0.0007 | 1.341 ± 0.0007 | – | – | –
[2], w1 = 0.0714 | 1.3447 ± 0.0007 | 1.3435 ± 0.0007 | 1.3425 ± 0.0007 | – | – | –
[2], w1 = 0.0793 | 1.346 ± 0.0007 | 1.3449 ± 0.0007 | 1.3439 ± 0.0007 | – | – | –
[2], w1 = 0.0872 | 1.3475 ± 0.0007 | 1.3462 ± 0.0007 | 1.3452 ± 0.0007 | – | – | –
[2], w1 = 0.0948 | 1.3486 ± 0.0007 | 1.3475 ± 0.0007 | 1.3464 ± 0.0007 | – | – | –
[2], w1 = 0.1026 | 1.3502 ± 0.0007 | 1.3488 ± 0.0007 | 1.3479 ± 0.0007 | – | – | –
[2], w1 = 0.1098 | 1.3511 ± 0.0007 | 1.35 ± 0.0007 | 1.349 ± 0.0007 | – | – | –
[2], w1 = 0.1169 | 1.3526 ± 0.0007 | 1.3512 ± 0.0007 | 1.3502 ± 0.0007 | – | – | –
[2], w1 = 0.1223 | 1.3535 ± 0.0007 | 1.3523 ± 0.0007 | 1.3513 ± 0.0007 | – | – | –
[2], w1 = 0.1314 | 1.3551 ± 0.0006 | 1.3537 ± 0.0006 | 1.3526 ± 0.0006 | – | – | –
[2], w1 = 0.1361 | 1.3557 ± 0.0006 | 1.3545 ± 0.0006 | 1.3536 ± 0.0006 | – | – | –
[2], w1 = 0.1437 | 1.3572 ± 0.0006 | 1.356 ± 0.0006 | 1.3548 ± 0.0006 | – | – | –
[2], w1 = 0.1514 | 1.3584 ± 0.0006 | 1.3572 ± 0.0006 | 1.3562 ± 0.0006 | – | – | –
[2], w1 = 0.1577 | 1.3594 ± 0.0006 | 1.3582 ± 0.0006 | 1.3573 ± 0.0006 | – | – | –
[2], w1 = 0.1646 | 1.3607 ± 0.0006 | 1.3596 ± 0.0006 | 1.3587 ± 0.0006 | – | – | –
[2], w1 = 0.1697 | 1.3616 ± 0.0006 | 1.3606 ± 0.0006 | 1.3595 ± 0.0006 | – | – | –
[2], w1 = 0.1769 | 1.363 ± 0.0006 | 1.3617 ± 0.0006 | 1.3607 ± 0.0006 | – | – | –
[2], w1 = 0.1825 | 1.3639 ± 0.0006 | 1.3627 ± 0.0006 | 1.3616 ± 0.0006 | – | – | –
[2], w1 = 0.1886 | 1.3649 ± 0.0006 | 1.3637 ± 0.0006 | 1.3627 ± 0.0006 | – | – | –
[2], w1 = 0.1941 | 1.366 ± 0.0006 | 1.3646 ± 0.0006 | 1.3636 ± 0.0006 | – | – | –
[2], w1 = 0.1996 | 1.3668 ± 0.0006 | 1.3655 ± 0.0006 | 1.3644 ± 0.0006 | – | – | –
[2], w1 = 0.2048 | 1.3677 ± 0.0006 | 1.3664 ± 0.0006 | 1.3654 ± 0.0006 | – | – | –
[2], w1 = 0.2116 | 1.3689 ± 0.0006 | 1.3675 ± 0.0006 | 1.3666 ± 0.0006 | – | – | –
[2], w1 = 0.2167 | 1.3697 ± 0.0006 | 1.3685 ± 0.0006 | 1.3675 ± 0.0006 | – | – | –
[2], w1 = 0.2221 | 1.3707 ± 0.0006 | 1.3696 ± 0.0006 | 1.3684 ± 0.0006 | – | – | –
[2], w1 = 0.2281 | 1.3719 ± 0.0006 | 1.3707 ± 0.0006 | 1.3695 ± 0.0006 | – | – | –
[2], w1 = 0.2328 | 1.3728 ± 0.0006 | 1.3715 ± 0.0006 | 1.3703 ± 0.0006 | – | – | –
[2], w1 = 0.243 | 1.3744 ± 0.0006 | 1.3731 ± 0.0006 | 1.372 ± 0.0006 | – | – | –
[2], w1 = 0.2493 | 1.3755 ± 0.0006 | 1.3744 ± 0.0006 | 1.3732 ± 0.0006 | – | – | –
[2], w1 = 0.2577 | 1.377 ± 0.0006 | 1.3759 ± 0.0006 | 1.3749 ± 0.0006 | – | – | –
[2], w1 = 0.2622 | 1.3778 ± 0.0006 | 1.3765 ± 0.0006 | 1.3757 ± 0.0006 | – | – | –
[2], w1 = 0.2681 | 1.379 ± 0.0006 | 1.3777 ± 0.0006 | 1.3765 ± 0.0006 | – | – | –
[2], w1 = 0.2757 | 1.3802 ± 0.0006 | 1.3791 ± 0.0006 | 1.3778 ± 0.0006 | – | – | –
[2], w1 = 0.2859 | 1.3821 ± 0.0006 | 1.3809 ± 0.0006 | 1.3798 ± 0.0006 | – | – | –
[2], w1 = 0.2979 | 1.384 ± 0.0006 | 1.3829 ± 0.0006 | 1.3819 ± 0.0006 | – | – | –
[2], w1 = 0.3085 | 1.3861 ± 0.0006 | 1.3848 ± 0.0006 | 1.3841 ± 0.0006 | – | – | –
